Assay results taken from patent publication US10004701B2, “Methods and compositions for treating infection” (UNIVERSITY OF ROCHESTER, priority 2012, dated 2018).
Like-named read-outs stand apart in the source and are kept apart here.

How the values were obtained:
Test in all cases: AK assay 384-well format, Prestwick library screening
E. faecium = format: cell-based, Enterococcus faecium; conditions: 50 μM final drug concentration; for fold induction at 50 µM: Enterococcus faecium, 3 h
[1] = system: S. aureus strain USA300-0114; format: cell-based, Staphylococcus aureus; conditions: 50 μM final drug concentration; for fold induction at 50 µM: Staphylococcus aureus, USA300, 3 h
K. pneumoniae = format: cell-based, Klebsiella pneumoniae; conditions: 50 μM final drug concentration; for fold induction at 50 µM: Klebsiella pneumoniae, 3 h
[2] = system: A. baumannii strain 98-37-09; format: cell-based, Acinetobacter baumannii; conditions: 50 μM final drug concentration; for fold induction at 50 µM: Acinetobacter baumannii, 983709, 3 h
P. aeruginosa = format: cell-based, Pseudomonas aeruginosa; conditions: 50 μM final drug concentration; for fold induction at 50 µM: Pseudomonas aeruginosa, 3 h
E. cloacae = format: cell-based, Enterobacter cloacae; conditions: 50 μM final drug concentration; for fold induction at 50 µM: Enterobacter cloacae, 3 h
E. coli = format: cell-based, Escherichia coli; conditions: 50 μM final drug concentration; for fold induction at 50 µM: Escherichia coli, 3 h
[3] = planktonic E. faecium, cutoff for positive-scoring molecules 3-fold increase, read-out: AK-based Prestwick Library Screening Results, E. faecium (increase in extracellular AK activity)
[4] = planktonic S. aureus, cutoff for positive-scoring molecules 3-fold increase, read-out: AK-based Prestwick Library Screening Results, S. aureus (increase in extracellular AK activity)
[5] = planktonic K. pneumoniae, cutoff for positive-scoring molecules 3-fold increase, read-out: AK-based Prestwick Library Screening Results, K. pneumoniae (increase in extracellular AK activity)
[6] = planktonic A. baumannii, cutoff for positive-scoring molecules 3-fold increase, read-out: AK-based Prestwick Library Screening Results, A. baumannii (increase in extracellular AK activity)
[7] = planktonic P. aeruginosa, cutoff for positive-scoring molecules 3-fold increase, read-out: AK-based Prestwick Library Screening Results, P. aeruginosa (increase in extracellular AK activity)
[8] = planktonic E. cloacae, cutoff for positive-scoring molecules 3-fold increase, read-out: AK-based Prestwick Library Screening Results, E. cloacae (increase in extracellular AK activity)
[9] = planktonic E. coli, cutoff for positive-scoring molecules 3-fold increase, read-out: AK-based Prestwick Library Screening Results, E. coli (increase in extracellular AK activity)

Molecule: CCC1(C)CC(=O)NC(=O)C1 [Bemegride]
- fold induction at 50 µM (E. faecium; planktonic, […], read-out: AK-based Prestwick Library Screening Results, E. faecium (fold increase in extracellular AK activity)): 0.9
- fold induction at 50 µM ([1]; planktonic, […], read-out: AK-based Prestwick Library Screening Results, S. aureus (fold increase in extracellular AK activity)): 0.7
- fold induction at 50 µM (K. pneumoniae; planktonic, […], read-out: AK-based Prestwick Library Screening Results, K. pneumoniae (fold increase in extracellular AK activity)): 0.6
- fold induction at 50 µM ([2]; planktonic, […], read-out: AK-based Prestwick Library Screening Results, A. baumannii (fold increase in extracellular AK activity)): 0.7
- fold induction at 50 µM (P. aeruginosa; planktonic, […], read-out: AK-based Prestwick Library Screening Results, P. aeruginosa (fold increase in extracellular AK activity)): 0.6
- fold induction at 50 µM (E. cloacae; planktonic, […], read-out: AK-based Prestwick Library Screening Results, E. cloacae (fold increase in extracellular AK activity)): 0.6
- fold induction at 50 µM (E. coli; planktonic, […], read-out: AK-based Prestwick Library Screening Results, E. coli (fold increase in extracellular AK activity)): 0.6

Molecule: Cc1cc(C(=O)NNCc2ccccc2)no1 [Isocarboxazid]
- fold induction at 50 µM (E. faecium; cutoff for positive-scoring molecules 3-fold increase, read-out: AK-based Prestwick Library Screening Results, E. faecium (fold increase in extracellular AK activity)): 1
- fold induction at 50 µM ([1]; cutoff for positive-scoring molecules 3-fold increase, read-out: AK-based Prestwick Library Screening Results, S. aureus (fold increase in extracellular AK activity)): 1.5
- fold induction at 50 µM (K. pneumoniae; cutoff for positive-scoring molecules 3-fold increase, read-out: AK-based Prestwick Library Screening Results, K. pneumoniae (fold increase in extracellular AK activity)): 1.1
- fold induction at 50 µM ([2]; cutoff for positive-scoring molecules 3-fold increase, read-out: AK-based Prestwick Library Screening Results, A. baumannii (fold increase in extracellular AK activity)): 1.1
- fold induction at 50 µM (P. aeruginosa; cutoff for positive-scoring molecules 3-fold increase, read-out: AK-based Prestwick Library Screening Results, P. aeruginosa (fold increase in extracellular AK activity)): 1.1
- fold induction at 50 µM (E. cloacae; cutoff for positive-scoring molecules 3-fold increase, read-out: AK-based Prestwick Library Screening Results, E. cloacae (fold increase in extracellular AK activity)): 1.5
- fold induction at 50 µM (E. coli; cutoff for positive-scoring molecules 3-fold increase, read-out: AK-based Prestwick Library Screening Results, E. coli (fold increase in extracellular AK activity)): 1.1

Molecule: CCN(CC)C(=O)c1ccc(O)c(OC)c1 [Ethamivan]
- fold induction at 50 µM (E. faecium; [3]): 1
- fold induction at 50 µM [1, 4]: 0.6
- fold induction at 50 µM (K. pneumoniae; [5]): 0.6
- fold induction at 50 µM [2, 6]: 0.9
- fold induction at 50 µM (P. aeruginosa; [7]): 0.6
- fold induction at 50 µM (E. cloacae; [8]): 0.9
- fold induction at 50 µM (E. coli; [9]): 0.6

Molecule: CN1[C@@H](CC(=O)c2ccccc2)CCC[C@H]1C[C@H](O)c1ccccc1.Cl [Lobeline alpha (−) hydrochoride]
- AK-based Prestwick Library Screening Results, E. faecium (increase in extracellular AK activity) (E. faecium; planktonic E. faecium, […]): 0.9
- AK-based Prestwick Library Screening Results, S. aureus (increase in extracellular AK activity) ([1]; planktonic S. aureus, […]): 0.8
- AK-based Prestwick Library Screening Results, K. pneumoniae (increase in extracellular AK activity) (K. pneumoniae; planktonic K. pneumoniae, […]): 0.7
- AK-based Prestwick Library Screening Results, A. baumannii (increase in extracellular AK activity) ([2]; planktonic A. baumannii, […]): 0.8
- AK-based Prestwick Library Screening Results, P. aeruginosa (increase in extracellular AK activity) (P. aeruginosa; planktonic P. aeruginosa, […]): 0.9
- AK-based Prestwick Library Screening Results, E. cloacae (increase in extracellular AK activity) (E. cloacae; planktonic E. cloacae, […]): 1.0
- AK-based Prestwick Library Screening Results, E. coli (increase in extracellular AK activity) (E. coli; planktonic E. coli, […]): 1.0

Molecule: CC(=O)OCC(=O)[C@@]1(OC(C)=O)[C@@H](C)C[C@H]2[C@@H]3C[C@H](F)C4=CC(=O)C=C[C@]4(C)[C@@]3(F)[C@@H](O)C[C@@]21C [Diflorasone Diacetate]
- fold induction at 50 µM (E. faecium; planktonic, cutoff for positive 3-fold increase, read-out: AK-based Prestwick Library Screening Results, E. faecium (fold increase in extracellular AK activity)): 1.1
- fold induction at 50 µM ([1]; planktonic, cutoff for positive 3-fold increase, read-out: AK-based Prestwick Library Screening Results, S. aureus (fold increase in extracellular AK activity)): 1.1
- fold induction at 50 µM (K. pneumoniae; planktonic, cutoff for positive 3-fold increase, read-out: AK-based Prestwick Library Screening Results, K. pneumoniae (fold increase in extracellular AK activity)): 1
- fold induction at 50 µM ([2]; planktonic, cutoff for positive 3-fold increase, read-out: AK-based Prestwick Library Screening Results, A. baumannii (fold increase in extracellular AK activity)): 0.9
- fold induction at 50 µM (P. aeruginosa; planktonic, cutoff for positive 3-fold increase, read-out: AK-based Prestwick Library Screening Results, P. aeruginosa (fold increase in extracellular AK activity)): 1
- fold induction at 50 µM (E. cloacae; planktonic, cutoff for positive 3-fold increase, read-out: AK-based Prestwick Library Screening Results, E. cloacae (fold increase in extracellular AK activity)): 1.4
- fold induction at 50 µM (E. coli; planktonic, cutoff for positive 3-fold increase, read-out: AK-based Prestwick Library Screening Results, E. coli (fold increase in extracellular AK activity)): 1.1

Molecule: CCN[C@H]1CN(CCCOC)S(=O)(=O)c2sc(S(N)(=O)=O)cc21 [Brinzolamide]
- fold induction at 50 µM (E. faecium; [3]): 1.4
- fold induction at 50 µM [1, 4]: 1
- fold induction at 50 µM (K. pneumoniae; [5]): 0.9
- fold induction at 50 µM [2, 6]: 1.1
- fold induction at 50 µM (P. aeruginosa; [7]): 1.1
- fold induction at 50 µM (E. cloacae; [8]): 1.5
- fold induction at 50 µM (E. coli; [9]): 1.1

Molecule: O=C(CCCN1CCC2(CC1)C(=O)NCN2c1ccccc1)c1ccc(F)cc1 [Spiperone]
- fold induction at 50 µM (E. faecium; planktonic E. faecium, 384-well, cutoff for positive-scoring molecules 3-fold increase, read-out: AK-based Prestwick Library Screening Results: E. faecium (increase in extracellular AK activity)): 1.2
- fold induction at 50 µM ([1]; planktonic S. aureus, 384-well, cutoff for positive-scoring molecules 3-fold increase, read-out: AK-based Prestwick Library Screening Results: S. aureus (increase in extracellular AK activity)): 1
- fold induction at 50 µM (K. pneumoniae; planktonic K. pneumoniae, 384-well, cutoff for positive-scoring molecules 3-fold increase, read-out: AK-based Prestwick Library Screening Results: K. pneumoniae (increase in extracellular AK activity)): 0.9
- fold induction at 50 µM ([2]; planktonic A. baumannii, 384-well, cutoff for positive-scoring molecules 3-fold increase, read-out: AK-based Prestwick Library Screening Results: A. baumannii (increase in extracellular AK activity)): 1.2
- fold induction at 50 µM (P. aeruginosa; planktonic P. aeruginosa, 384-well, cutoff for positive-scoring molecules 3-fold increase, read-out: AK-based Prestwick Library Screening Results: P. aeruginosa (increase in extracellular AK activity)): 1.2
- fold induction at 50 µM (E. cloacae; planktonic E. cloacae, 384-well, cutoff for positive-scoring molecules 3-fold increase, read-out: AK-based Prestwick Library Screening Results: E. cloacae (increase in extracellular AK activity)): 1.3
- fold induction at 50 µM (E. coli; planktonic E. coli, 384-well, cutoff for positive-scoring molecules 3-fold increase, read-out: AK-based Prestwick Library Screening Results: E. coli (increase in extracellular AK activity)): 1.3

Molecule: Antimycin A
- AK-based Prestwick Library Screening Results: E. faecium (increase in extracellular AK activity) (E. faecium; planktonic E. faecium, 384-well, […]): 1.1
- AK-based Prestwick Library Screening Results: S. aureus (increase in extracellular AK activity) ([1]; planktonic S. aureus, 384-well, […]): 1.0
- AK-based Prestwick Library Screening Results: K. pneumoniae (increase in extracellular AK activity) (K. pneumoniae; planktonic K. pneumoniae, 384-well, […]): 1.0
- AK-based Prestwick Library Screening Results: A. baumannii (increase in extracellular AK activity) ([2]; planktonic A. baumannii, 384-well, […]): 1.4
- AK-based Prestwick Library Screening Results: P. aeruginosa (increase in extracellular AK activity) (P. aeruginosa; planktonic P. aeruginosa, 384-well, […]): 1.1
- AK-based Prestwick Library Screening Results: E. cloacae (increase in extracellular AK activity) (E. cloacae; planktonic E. cloacae, 384-well, […]): 1.3
- AK-based Prestwick Library Screening Results: E. coli (increase in extracellular AK activity) (E. coli; planktonic E. coli, 384-well, […]): 1.3

Molecule: Nc1ccc(O)c(C(=O)O)c1 [Mesalamine]
- fold induction at 50 µM (E. faecium; planktonic E. faecium, positive cutoff 3-fold increase, read-out: AK-based Prestwick library screening result, E. faecium (fold increase in extracellular AK activity)): 0.9
- fold induction at 50 µM ([1]; planktonic S. aureus, positive cutoff 3-fold increase, read-out: AK-based Prestwick library screening result, S. aureus (fold increase in extracellular AK activity)): 0.7
- fold induction at 50 µM (K. pneumoniae; planktonic K. pneumoniae, positive cutoff 3-fold increase, read-out: AK-based Prestwick library screening result, K. pneumoniae (fold increase in extracellular AK activity)): 0.7
- fold induction at 50 µM ([2]; planktonic A. baumannii, positive cutoff 3-fold increase, read-out: AK-based Prestwick library screening result, A. baumannii (fold increase in extracellular AK activity)): 0.9
- fold induction at 50 µM (P. aeruginosa; planktonic P. aeruginosa, positive cutoff 3-fold increase, read-out: AK-based Prestwick library screening result, P. aeruginosa (fold increase in extracellular AK activity)): 0.9
- fold induction at 50 µM (E. cloacae; planktonic E. cloacae, positive cutoff 3-fold increase, read-out: AK-based Prestwick library screening result, E. cloacae (fold increase in extracellular AK activity)): 1
- fold induction at 50 µM (E. coli; planktonic E. coli, positive cutoff 3-fold increase, read-out: AK-based Prestwick library screening result, E. coli (fold increase in extracellular AK activity)): 0.9
